Values of other authors, collected in PMC4628094, “In Vitro Assessment of Uptake and Lysosomal Sequestration of Respiratory Drugs in Alveolar Macrophage Cell Line NR8383” (Pharmaceutical Research, 2015).

How the values were obtained:
[1] = system: Liver tissue slices from male Wistar rats; set-up: method as in ref (7) (a number printed in a supplementary file, which may have a reference list of its own: not looked up in the article's list); details: NH4Cl 3 mg/min/kg (i.v. infusion), drug 3.2 mg/kg (i.v. injection), 360 min, ref (7); cited from earlier work
[2] = system: Lung tissue slices from male Wistar rats; set-up: method as in ref (7) (a number printed in a supplementary file, which may have a reference list of its own: not looked up in the article's list); details: NH4Cl 3 mg/min/kg (i.v. infusion), drug 3.2 mg/kg (i.v. injection), 360 min, ref (7); cited from earlier work
[3] = system: Lung granule fraction containing lysosomes from male Wistar rats; set-up: method as in ref (6) (a number printed in a supplementary file, which may have a reference list of its own: not looked up in the article's list); details: NH4Cl 10 mM, drug 1 µM, 10 min; ref (6); cited from earlier work
[4] = system: Mouse peritoneal macrophages; set-up: method as in ref (1) (a number printed in a supplementary file, which may have a reference list of its own: not looked up in the article's list); details: drug 50 µM, 120 min, ref (1), cited from earlier work
[5] = system: Lung tissue slices from male Sprague-Dawley rats; details: desipramine, diazepam 5 µM, chloroquine, thiopental 10 µM, 60 min, ref (3), cited from earlier work
[6] = system: Liver tissue slices from male Sprague-Dawley rats; set-up: method as in ref (3) (a number printed in a supplementary file, which may have a reference list of its own: not looked up in the article's list); details: NH4Cl 20 mM, desipramine 5 µM, chloroquine 10 µM, 60 min, ref (3); cited from earlier work

In the case of `OC(CCN1CCCCC1)(c1ccccc1)C1CCCCC1` (centres unmarked) [Trihexyphenidyl], the “Reduction in total uptake (%)” value [1] is listed as 11%, the “Reduction in total uptake (%)” value [2] is listed as 68% and the “Reduction in total uptake (%)” value [3] is listed as 54%.
For `CN` [Methylamine], the “Reduction in total uptake (%)” value ([4]; NH4Cl 10 mM) is given as 54% and the “Reduction of total uptake (%)” value ([4]; nigericin 5 µg/ml (~7 µM)) is given as 49%.
For `CNCCCN1c2ccccc2CCc2ccccc21` [Desipramine], the “Reduction in total uptake (%)” value ([5]; NH4Cl 20 mM) is given as 23%, the “Reduction of total uptake (%)” value ([5]; monensin 10 µM) is given as 12% and the “Reduction in total uptake (%)” value [6] is given as 15%.
For `OC(CCN1CCCCC1)(c1ccccc1)C1CC2C=CC1C2` (centres unmarked) [Biperiden], the “Reduction in total uptake (%)” value [1] is given as 2.5%, the “Reduction in total uptake (%)” value [2] is given as 77% and the “Reduction in total uptake (%)” value [3] is given as 56%.
